Test results reported in paper PMC6364417, “Kinase inhibitor library screening identifies synergistic drug combinations effective in sensitive and resistant melanoma cells” (Journal of Experimental & Clinical Cancer Research : CR, 2019).

Columns and labels:
Test in all cases: Kinase inhibitor library screening, PrestoBlue cell viability, 1 or 10 μM, 72 h
[1] = system: IGR37-XP cells (Vemurafenib-resistant)
501Mel cells (parental) = system: 501Mel cells (parental)
Outline: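 Readout: PrestoBlue signal on a monochromator plate reader, given as percent viability relative to untreated controls. Parental and drug-resistant (Vemurafenib XP, Dabrafenib GP) sublines were tested; at least duplicates per line.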

A375 cells (parental) = system: A375 cells (parental)
[2] = system: IGR37-GP cells (Dabrafenib-resistant)
[3] = system: A375-XP cells (Vemurafenib-resistant)
[4] = system: 501Mel-GP cells (Dabrafenib-resistant)
[5] = system: 501Mel-XP cells (Vemurafenib-resistant)
IGR37 cells (parental) = system: IGR37 cells (parental)
[6] = system: A375-GP cells (Dabrafenib-resistant)
[7] = 501Mel Parental, 10μΜ, 72 h, in %
[8] = IGR37 Parental, 1μΜ, 72 h, in %
[9] = IGR37 Parental, 10μΜ, 72 h, in %

SMILES: C=CC(=O)Nc1cccc(Oc2nc(Nc3ccc(N4CCN(C)CC4)cc3)ncc2Cl)c1 [WZ3146]
- cell viability, IGR37 XP, 10μΜ ([1]; IGR37 XP, 10μΜ, 72 h): 7%
- cell viability, IGR37 XP, 1μΜ ([1]; IGR37 XP, 1μΜ, 72 h, in %): 73.3
- cell viability, 501Mel Parental, 10μΜ (501Mel cells (parental); [7]): 1.1
- cell viability, A375 Parental, 1μΜ (A375 cells (parental); A375 Parental, 1μΜ, 72 h, in %): 87.2
- cell viability, A375 Parental, 10μΜ (A375 cells (parental); A375 Parental, 10μΜ, 72 h, in %): 30.7
- cell viability, IGR37 GP, 10μΜ ([2]; IGR37 GP, 10μΜ, 72 h): 39%
- cell viability, IGR37 GP, 1μΜ ([2]; IGR37 GP, 1μΜ, 72 h, in %): 92.8
- cell viability, A375 XP, 1μΜ ([3]; A375 XP, 1μΜ, 72 h, in %): 94.3
- cell viability, A375 XP, 10μΜ ([3]; A375 XP, 10μΜ, 72 h, in %): 20.1
- cell viability, 501Mel GP, 1μΜ ([4]; 501Mel GP, 1μΜ, 72 h, in %): 102.6
- cell viability, 501Mel GP, 10μΜ ([4]; 501Mel GP, 10μΜ, 72 h, in %): 53.7
- cell viability, 501Mel XP, 1μΜ ([5]; 501Mel XP, 1μΜ, 72 h, in %): 78.6
- cell viability, 501Mel XP, 10μΜ ([5]; 501Mel XP, 10μΜ, 72 h, in %): 0.0384
- cell viability, IGR37 Parental, 1μΜ (IGR37 cells (parental); [8]): 96.7
- cell viability, IGR37 Parental, 10μΜ (IGR37 cells (parental); [9]): 56.4
- cell viability, A375 GP, 1μΜ ([6]; A375 GP, 1μΜ, 72 h, in %): 82.9
- cell viability, A375 GP, 10μΜ ([6]; A375 GP, 10μΜ, 72 h, in %): 22.9

SMILES: COc1cc2nccc(Oc3ccc(NC(=O)C4(C(=O)Nc5ccc(F)cc5)CC4)cc3)c2cc1OC [XL-184 free base (Cabozantinib)]
- cell viability (kinase inhibitor library screening) ([1]; IGR37 XP, 1μΜ, in %): 90.6
- cell viability (kinase inhibitor library screening) ([1]; IGR37 XP, 10μΜ, in %): 3.1
- cell viability (kinase inhibitor library screening) (501Mel cells (parental); 501Mel Parental, 1μΜ, in %): 90.2
- cell viability (kinase inhibitor library screening) (501Mel cells (parental); 501Mel Parental, 10μΜ, in %): 73.6
- cell viability (kinase inhibitor library screening) (A375 cells (parental); A375 Parental, 1μΜ, in %): 98.4
- cell viability (kinase inhibitor library screening) (A375 cells (parental); A375 Parental, 10μΜ, in %): 40.5
- cell viability (kinase inhibitor library screening) ([2]; IGR37 GP, 1μΜ, in %): 96.8
- cell viability (kinase inhibitor library screening) ([2]; IGR37 GP, 10μΜ, in %): 14.8
- cell viability (kinase inhibitor library screening) ([3]; A375 XP, 10μΜ, in %): 51.6
- cell viability (kinase inhibitor library screening) ([4]; 501Mel GP, 1μΜ, in %): 76.7
- cell viability (kinase inhibitor library screening) ([4]; 501Mel GP, 10μΜ, in %): 38.8
- cell viability (kinase inhibitor library screening) ([5]; 501Mel XP, 1μΜ, in %): 58.9
- cell viability (kinase inhibitor library screening) ([5]; 501Mel XP, 10μΜ, in %): 24.9
- cell viability (kinase inhibitor library screening) (IGR37 cells (parental); IGR37 Parental, 1μΜ, in %): 94.2
- cell viability (kinase inhibitor library screening) (IGR37 cells (parental); IGR37 Parental, 10μΜ, in %): 42.6
- cell viability (kinase inhibitor library screening) ([6]; A375 GP, 1μΜ, in %): 97.8
- cell viability (kinase inhibitor library screening) ([6]; A375 GP, 10μΜ, in %): 41.3

SMILES: Cc1cc(Nc2ncnc3ccc(NC4=NC(C)(C)CO4)cc23)ccc1Oc1ccn2ncnc2c1 [Arry-380]
- viability at 1 µM ([1]; Homo sapiens, IGR-37, 72 h, read-out: cell viability, IGR37 XP, 1μΜ): 99.7%
- viability at 10 µM ([1]; Homo sapiens, IGR-37, 72 h, read-out: cell viability, IGR37 XP, 10μΜ): 24.3%
- viability at 1 µM (501Mel cells (parental); Homo sapiens, 72 h, read-out: cell viability, 501Mel Parental, 1μΜ): 103%
- viability at 10 µM (501Mel cells (parental); Homo sapiens, 72 h, read-out: cell viability, 501Mel Parental, 10μΜ): 69.6%
- viability at 1 µM (A375 cells (parental); Homo sapiens, A-375, 72 h, read-out: cell viability, A375 Parental, 1μΜ): 105%
- viability at 10 µM (A375 cells (parental); Homo sapiens, A-375, 72 h, read-out: cell viability, A375 Parental, 10μΜ): 89.6%
- viability at 1 µM ([2]; Homo sapiens, IGR-37, 72 h, read-out: cell viability, IGR37 GP, 1μΜ): 96.4%
- viability at 10 µM ([2]; Homo sapiens, IGR-37, 72 h, read-out: cell viability, IGR37 GP, 10μΜ): 57.2%
- viability at 1 µM ([3]; Homo sapiens, A-375, 72 h, read-out: cell viability, A375 XP, 1μΜ): 106%
- viability at 10 µM ([3]; Homo sapiens, A-375, 72 h, read-out: cell viability, A375 XP, 10μΜ): 80.2%
- viability at 1 µM ([4]; Homo sapiens, 72 h, read-out: cell viability, 501Mel GP, 1μΜ): 101%
- viability at 10 µM ([4]; Homo sapiens, 72 h, read-out: cell viability, 501Mel GP, 10μΜ): 56.8%
- viability at 1 µM ([5]; Homo sapiens, 72 h, read-out: cell viability, 501Mel XP, 1μΜ): 117%
- viability at 10 µM ([5]; Homo sapiens, 72 h, read-out: cell viability, 501Mel XP, 10μΜ): 52.3%
- viability at 1 µM (IGR37 cells (parental); Homo sapiens, IGR-37, 72 h, read-out: cell viability, IGR37 Parental, 1μΜ): 108%
- viability at 10 µM (IGR37 cells (parental); Homo sapiens, IGR-37, 72 h, read-out: cell viability, IGR37 Parental, 10μΜ): 103%
- viability at 1 µM ([6]; Homo sapiens, A-375, 72 h, read-out: cell viability, A375 GP, 1μΜ): 105%
- viability at 10 µM ([6]; Homo sapiens, A-375, 72 h, read-out: cell viability, A375 GP, 10μΜ): 77.8%

SMILES: O=C(NCCCNc1nc(Nc2cccc(NC(=O)N3CCCC3)c2)ncc1I)c1cccs1 [BX-795]
- Cell viability in kinase inhibitor library screening, IGR37 XP, 10μΜ ([1]; IGR37 XP, 10μΜ, 72 h): 7.6%
- Cell viability in kinase inhibitor library screening, IGR37 XP, 1μΜ ([1]; IGR37 XP, 1μΜ, 72 h, in %): 93.9
- Cell viability in kinase inhibitor library screening, 501Mel Parental, 1μΜ (501Mel cells (parental); 501Mel Parental, 1μΜ, 72 h, in %): 92.8
- Cell viability in kinase inhibitor library screening, 501Mel Parental, 10μΜ (501Mel cells (parental); [7]): 82.7
- Cell viability in kinase inhibitor library screening, A375 Parental, 10μΜ (A375 cells (parental); A375 Parental, 10μΜ, 72 h): 38.1
- Cell viability in kinase inhibitor library screening, A375 Parental, 1μΜ (A375 cells (parental); A375 Parental, 1μΜ, 72 h): 87.7
- Cell viability in kinase inhibitor library screening, IGR37 GP, 10μΜ ([2]; IGR37 GP, 10μΜ, 72 h): 15.1%
- Cell viability in kinase inhibitor library screening, IGR37 GP, 1μΜ ([2]; IGR37 GP, 1μΜ, 72 h, in %): 85.8
- Cell viability in kinase inhibitor library screening, A375 XP, 1μΜ ([3]; A375 XP, 1μΜ, 72 h): 93.4
- Cell viability in kinase inhibitor library screening, A375 XP, 10μΜ ([3]; A375 XP, 10μΜ, 72 h): 48.3
- Cell viability in kinase inhibitor library screening, 501Mel GP, 1μΜ ([4]; 501Mel GP, 1μΜ, 72 h, in %): 97.1
- Cell viability in kinase inhibitor library screening, 501Mel GP, 10μΜ ([4]; 501Mel GP, 10μΜ, 72 h, in %): 64.9
- Cell viability in kinase inhibitor library screening, 501Mel XP, 1μΜ ([5]; 501Mel XP, 1μΜ, 72 h, in %): 89.4
- Cell viability in kinase inhibitor library screening, 501Mel XP, 10μΜ ([5]; 501Mel XP, 10μΜ, 72 h, in %): 39.9
- Cell viability in kinase inhibitor library screening, IGR37 Parental, 1μΜ (IGR37 cells (parental); [8]): 97.9
- Cell viability in kinase inhibitor library screening, IGR37 Parental, 10μΜ (IGR37 cells (parental); [9]): 56.4
- Cell viability in kinase inhibitor library screening, A375 GP, 1μΜ ([6]; A375 GP, 1μΜ, 72 h): 86.6
- Cell viability in kinase inhibitor library screening, A375 GP, 10μΜ ([6]; A375 GP, 10μΜ, 72 h): 43.6

SMILES: Cc1[nH]nc2ccc(-c3cncc(OC[C@@H](N)Cc4ccccc4)c3)cc12 [A-674563]
- cell viability (kinase inhibitor library screening) ([1]; IGR37 XP, 1μΜ, 72 h): 78.0%
- cell viability (kinase inhibitor library screening) ([1]; IGR37 XP, 10μΜ, 72 h): 2.1%
- cell viability (kinase inhibitor library screening) (501Mel cells (parental); 501Mel Parental, 1μΜ, 72 h): 73.1%
- cell viability (kinase inhibitor library screening) (501Mel cells (parental); 501Mel Parental, 10μΜ, 72 h): 1.4%
- cell viability (kinase inhibitor library screening) (A375 cells (parental); A375 Parental, 10μΜ, 72 h): 4.6%
- cell viability (kinase inhibitor library screening) (A375 cells (parental); A375 Parental, 1μΜ, 72 h): 82.1%
- cell viability (kinase inhibitor library screening) ([2]; IGR37 GP, 1μΜ, 72 h): 99.0%
- cell viability (kinase inhibitor library screening) ([2]; IGR37 GP, 10μΜ, 72 h): 2.8%
- cell viability (kinase inhibitor library screening) ([3]; A375 XP, 1μΜ, 72 h): 54.3%
- cell viability (kinase inhibitor library screening) ([3]; A375 XP, 10μΜ, 72 h): 6.6%
- cell viability (kinase inhibitor library screening) ([4]; 501Mel GP, 1μΜ, 72 h): 64.5%
- cell viability (kinase inhibitor library screening) ([4]; 501Mel GP, 10μΜ, 72 h): 0.638%
- cell viability (kinase inhibitor library screening) ([5]; 501Mel XP, 1μΜ, 72 h): 56.5%
- cell viability (kinase inhibitor library screening) ([5]; 501Mel XP, 10μΜ, 72 h): 0.5%
- cell viability (kinase inhibitor library screening) (IGR37 cells (parental); IGR37 Parental, 1μΜ, 72 h): 96.7%
- cell viability (kinase inhibitor library screening) (IGR37 cells (parental); IGR37 Parental, 10μΜ, 72 h): 1.9%
- cell viability (kinase inhibitor library screening) ([6]; A375 GP, 1μΜ, 72 h): 63.4%
- cell viability (kinase inhibitor library screening) ([6]; A375 GP, 10μΜ, 72 h): 2.7%

SMILES: Cn1cc(-c2ccc3ncc(Cc4ccc5ncccc5c4)n3n2)cn1 [NVP-BVU972]
- cell viability (kinase inhibitor library screening) ([1]; IGR37 XP, 1μΜ, 72 h): 110.4%
- cell viability (kinase inhibitor library screening) ([1]; IGR37 XP, 10μΜ, 72 h): 86.2%
- cell viability (kinase inhibitor library screening) (501Mel cells (parental); 501Mel Parental, 1μΜ, 72 h): 107.5%
- cell viability (kinase inhibitor library screening) (501Mel cells (parental); 501Mel Parental, 10μΜ, 72 h): 89.2%
- cell viability (kinase inhibitor library screening) (A375 cells (parental); A375 Parental, 10μΜ, 72 h): 100.0%
- cell viability (kinase inhibitor library screening) (A375 cells (parental); A375 Parental, 1μΜ, 72 h): 108.4%
- cell viability (kinase inhibitor library screening) ([2]; IGR37 GP, 1μΜ, 72 h): 108.8%
- cell viability (kinase inhibitor library screening) ([2]; IGR37 GP, 10μΜ, 72 h): 87.7%
- cell viability (kinase inhibitor library screening) ([3]; A375 XP, 1μΜ, 72 h): 109.6%
- cell viability (kinase inhibitor library screening) ([3]; A375 XP, 10μΜ, 72 h): 105.5%
- cell viability (kinase inhibitor library screening) ([4]; 501Mel GP, 1μΜ, 72 h): 89.9%
- cell viability (kinase inhibitor library screening) ([4]; 501Mel GP, 10μΜ, 72 h): 69.4%
- cell viability (kinase inhibitor library screening) ([5]; 501Mel XP, 1μΜ, 72 h): 74.0%
- cell viability (kinase inhibitor library screening) ([5]; 501Mel XP, 10μΜ, 72 h): 62.7%
- cell viability (kinase inhibitor library screening) (IGR37 cells (parental); IGR37 Parental, 1μΜ, 72 h): 104.5%
- cell viability (kinase inhibitor library screening) (IGR37 cells (parental); IGR37 Parental, 10μΜ, 72 h): 96.9%
- cell viability (kinase inhibitor library screening) ([6]; A375 GP, 1μΜ, 72 h): 106.0%
- cell viability (kinase inhibitor library screening) ([6]; A375 GP, 10μΜ, 72 h): 100.5%
